Experimental data from ChEMBL document CHEMBL3045481, “Insecticide-induced resurgence of the whitebacked planthopper Sogatella furcifera (Horvath) (Hemiptera: Delphacidae) on rice varieties with different levels of resistance” (Crop Prot, 2011).

Columns and labels:
Assay type in all cases: ADME, organism-based
Conditions in all cases: in vivo
[1] = test system: Oryza sativa; experiment: Effect on total sugar level in Sogatella furcifera-resistanct Oryza sativa (rice) plant PR116 leaf sheath measured per gram of dry weight at 0.0018% concentration (reference value: 30.27 mg/g dry wt)
[2] = test system: Oryza sativa; experiment: Effect on total sugar level in Sogatella furcifera-resistanct Oryza sativa (rice) plant PR116 leaf sheath measured per gram of dry weight at 0.0035% concentration (reference value: 30.27 mg/g dry wt)
[3] = test system: Oryza sativa; experiment: Effect on total phenols level in Sogatella furcifera-resistanct Oryza sativa (rice) plant PR116 leaf sheath measured per gram of dry weight at 0.0018% concentration (reference value: 5.75 mg/g dry wt)
[4] = test system: Oryza sativa; experiment: Effect on total phenols level in Sogatella furcifera-resistanct Oryza sativa (rice) plant PR116 leaf sheath measured per gram of dry weight at 0.0035% concentration (reference value: 5.75 mg/g dry wt)
[5] = test system: Oryza sativa; experiment: Effect on total amino acids level in Sogatella furcifera-resistanct Oryza sativa (rice) plant PR116 leaf blade measured per gram of dry weight at 0.0018% concentration (reference value: 3.91 mg/g […])
[6] = test system: Oryza sativa; experiment: Effect on total amino acids level in Sogatella furcifera-resistanct Oryza sativa (rice) plant PR116 leaf blade measured per gram of dry weight at 0.0035% concentration (reference value: 3.91 mg/g […])
[7] = test system: Oryza sativa; experiment: Effect on total amino acids level in Sogatella furcifera-sensitive Oryza sativa (rice) plant ARC6248 leaf sheath measured per gram of dry weight at 0.0018% concentration (reference value: 2.11 mg/g fresh wt)
[8] = test system: Oryza sativa; experiment: Effect on total amino acids level in Sogatella furcifera-sensitive Oryza sativa (rice) plant ARC6248 leaf sheath measured per gram of dry weight at 0.0035% concentration (reference value: 2.11 mg/g fresh wt)
[9] = test system: Oryza sativa; experiment: Effect on total amino acids level in Sogatella furcifera-sensitive Oryza sativa (rice) plant ARC6248 leaf blade measured per gram of dry weight at 0.0018% concentration (reference value: 3.54 mg/g fresh wt)
[10] = test system: Oryza sativa; experiment: Effect on total amino acids level in Sogatella furcifera-sensitive Oryza sativa (rice) plant ARC6248 leaf blade measured per gram of dry weight at 0.0035% concentration (reference value: 3.54 mg/g fresh wt)
[11] = test system: Oryza sativa; experiment: Effect on total protein level in Sogatella furcifera-sensitive Oryza sativa (rice) plant ARC6248 leaf blade measured per gram of dry weight at 0.0018% concentration (reference value: 17.67 mg/g fresh wt)
[12] = test system: Oryza sativa; experiment: Effect on total protein level in Sogatella furcifera-sensitive Oryza sativa (rice) plant ARC6248 leaf blade measured per gram of dry weight at 0.0035% concentration (reference value: 17.67 mg/g fresh wt)
[13] = test system: Oryza sativa; experiment: Effect on total protein level in Sogatella furcifera-resistanct Oryza sativa (rice) plant PR116 leaf blade measured per gram of dry weight at 0.0018% concentration (reference value: 21.67 mg/g fresh wt)
[14] = test system: Oryza sativa; experiment: Effect on total protein level in Sogatella furcifera-resistanct Oryza sativa (rice) plant PR116 leaf blade measured per gram of dry weight at 0.0035% concentration (reference value: 21.67 mg/g fresh wt)
[15] = test system: Oryza sativa; experiment: Effect on reducing sugar level in Sogatella furcifera-sensitive Oryza sativa (rice) plant ARC6248 leaf blade measured per gram of dry weight at 0.0018% concentration (reference value: 8.37 mg/g dry wt)
[16] = test system: Oryza sativa; experiment: Effect on reducing sugar level in Sogatella furcifera-sensitive Oryza sativa (rice) plant ARC6248 leaf blade measured per gram of dry weight at 0.0035% concentration (reference value: 8.37 mg/g dry wt)
[17] = test system: Oryza sativa; experiment: Effect on total amino acids level in Sogatella furcifera-resistanct Oryza sativa (rice) plant PR116 leaf sheath measured per gram of dry weight at 0.0018% concentration (reference value: 2.58 mg/g […])
[18] = test system: Oryza sativa; experiment: Effect on total amino acids level in Sogatella furcifera-resistanct Oryza sativa (rice) plant PR116 leaf sheath measured per gram of dry weight at 0.0035% concentration (reference value: 2.58 mg/g […])
[19] = test system: Oryza sativa; experiment: Effect on total phenols level in Sogatella furcifera-sensitive Oryza sativa (rice) plant ARC6248 leaf blade measured per gram of dry weight at 0.0018% concentration (reference value: 17.08 mg/g dry wt)
[20] = test system: Oryza sativa; experiment: Effect on total phenols level in Sogatella furcifera-sensitive Oryza sativa (rice) plant ARC6248 leaf blade measured per gram of dry weight at 0.0035% concentration (reference value: 17.08 mg/g dry wt)
[21] = test system: Oryza sativa; experiment: Effect on total phenols level in Sogatella furcifera-resistanct Oryza sativa (rice) plant PR116 leaf blade measured per gram of dry weight at 0.0018% concentration (reference value: 8.08 mg/g dry wt)
[22] = test system: Oryza sativa; experiment: Effect on total phenols level in Sogatella furcifera-resistanct Oryza sativa (rice) plant PR116 leaf blade measured per gram of dry weight at 0.0035% concentration (reference value: 8.08 mg/g dry wt)
[23] = test system: Oryza sativa; experiment: Effect on reducing sugar level in Sogatella furcifera-resistanct Oryza sativa (rice) plant PR116 leaf blade measured per gram of dry weight at 0.0018% concentration (reference value: 9.35 mg/g dry wt)
[24] = test system: Oryza sativa; experiment: Effect on reducing sugar level in Sogatella furcifera-resistanct Oryza sativa (rice) plant PR116 leaf blade measured per gram of dry weight at 0.0035% concentration (reference value: 9.35 mg/g dry wt)
[25] = test system: Oryza sativa; experiment: Effect on total sugar level in Sogatella furcifera-sensitive Oryza sativa (rice) plant ARC6248 leaf blade measured per gram of dry weight at 0.0018% concentration (reference value: 34.05 mg/g dry wt)
[26] = test system: Oryza sativa; experiment: Effect on total sugar level in Sogatella furcifera-sensitive Oryza sativa (rice) plant ARC6248 leaf blade measured per gram of dry weight at 0.0035% concentration (reference value: 34.05 mg/g dry wt)
[27] = test system: Oryza sativa; experiment: Effect on total sugar level in Sogatella furcifera-resistanct Oryza sativa (rice) plant PR116 leaf blade measured per gram of dry weight at 0.0018% concentration (reference value: 36.16 mg/g dry wt)
[28] = test system: Oryza sativa; experiment: Effect on total sugar level in Sogatella furcifera-resistanct Oryza sativa (rice) plant PR116 leaf blade measured per gram of dry weight at 0.0035% concentration (reference value: 36.16 mg/g dry wt)
[29] = test system: Oryza sativa; experiment: Effect on total protein level in Sogatella furcifera-sensitive Oryza sativa (rice) plant ARC6248 leaf sheath measured per gram of dry weight at 0.0018% concentration (reference value: 6.11 mg/g […])
[30] = test system: Oryza sativa; experiment: Effect on total protein level in Sogatella furcifera-sensitive Oryza sativa (rice) plant ARC6248 leaf sheath measured per gram of dry weight at 0.0035% concentration (reference value: 6.11 mg/g […])
[31] = test system: Oryza sativa; experiment: Effect on total protein level in Sogatella furcifera-resistanct Oryza sativa (rice) plant PR116 leaf sheath measured per gram of dry weight at 0.0018% concentration (reference value: 7.06 mg/g fresh wt)
[32] = test system: Oryza sativa; experiment: Effect on total protein level in Sogatella furcifera-resistanct Oryza sativa (rice) plant PR116 leaf sheath measured per gram of dry weight at 0.0035% concentration (reference value: 7.06 mg/g fresh wt)
[33] = test system: Oryza sativa; experiment: Effect on total phenols level in Sogatella furcifera-sensitive Oryza sativa (rice) plant ARC6248 leaf sheath measured per gram of dry weight at 0.0018% concentration (reference value: 12.75 mg/g dry wt)
[34] = test system: Oryza sativa; experiment: Effect on total phenols level in Sogatella furcifera-sensitive Oryza sativa (rice) plant ARC6248 leaf sheath measured per gram of dry weight at 0.0035% concentration (reference value: 12.75 mg/g dry wt)
[35] = test system: Oryza sativa; experiment: Effect on reducing sugar level in Sogatella furcifera-sensitive Oryza sativa (rice) plant ARC6248 leaf sheath measured per gram of dry weight at 0.0018% concentration (reference value: 6.41 mg/g dry wt)
[36] = test system: Oryza sativa; experiment: Effect on reducing sugar level in Sogatella furcifera-sensitive Oryza sativa (rice) plant ARC6248 leaf sheath measured per gram of dry weight at 0.0035% concentration (reference value: 6.41 mg/g dry wt)
[37] = test system: Oryza sativa; experiment: Effect on reducing sugar level in Sogatella furcifera-resistanct Oryza sativa (rice) plant PR116 leaf sheath measured per gram of dry weight at 0.0018% concentration (reference value: 7.50 mg/g dry wt)
[38] = test system: Oryza sativa; experiment: Effect on reducing sugar level in Sogatella furcifera-resistanct Oryza sativa (rice) plant PR116 leaf sheath measured per gram of dry weight at 0.0035% concentration (reference value: 7.50 mg/g dry wt)
[39] = test system: Oryza sativa; experiment: Effect on total sugar level in Sogatella furcifera-sensitive Oryza sativa (rice) plant ARC6248 leaf sheath measured per gram of dry weight at 0.0018% concentration (reference value: 25.98 mg/g dry wt)
[40] = test system: Oryza sativa; experiment: Effect on total sugar level in Sogatella furcifera-sensitive Oryza sativa (rice) plant ARC6248 leaf sheath measured per gram of dry weight at 0.0035% concentration (reference value: 25.98 mg/g dry wt)

O=[N+]([O-])NC1=NCCN1Cc1ccc(Cl)nc1 [IMIDACLOPRID] showed an Activity [1] of 31.34 mg, an Activity [2] of 32.41 mg and an Activity [3] of 6.17 mg. It also gave an Activity [4] of 6.67 mg, an Activity [5] of 3.73 mg and an Activity [6] of 4.27 mg. For the same molecule, the Activity [7] was 2.02 mg, the Activity [8] was 2.48 mg and the Activity [9] was 3.21 mg. It also gave an Activity [10] of 3.73 mg, an Activity [11] of 15.11 mg and an Activity [12] of 17.78 mg. For the same molecule, the Activity [13] was 18.89 mg, the Activity [14] was 21.11 mg and the Activity [15] was 9.67 mg. The Activity [16] was 8.8 mg, the Activity [17] was 2.4 mg and the Activity [18] was 2.68 mg. The Activity [19] was 17.67 mg, the Activity [20] was 18 mg and the Activity [21] was 8.08 mg. The Activity [22] was 8 mg, the Activity [23] was 12.72 mg and the Activity [24] was 11.85 mg. For the same molecule, the Activity [25] was 40.45 mg, the Activity [26] was 37 mg and the Activity [27] was 40.98 mg. It also gave an Activity [28] of 39.91 mg, an Activity [29] of 5.56 mg and an Activity [30] of 5.56 mg. The Activity [31] was 6.06 mg, the Activity [32] was 6.67 mg and the Activity [33] was 14.75 mg. It also gave an Activity [34] of 14.08 mg, an Activity [35] of 7.28 mg and an Activity [36] of 6.63 mg. The Activity [37] was 8.8 mg, the Activity [38] was 8.81 mg and the Activity [39] was 34.55 mg. It also gave an Activity [40] of 30.27 mg.
